Results taken from ChEMBL document CHEMBL5370611, “Discovery of 4,5,6,7-Tetrahydropyrazolo[1.5-a]pyrizine Derivatives as Core Protein Allosteric Modulators (CpAMs) for the Inhibition of Hepatitis B Virus” (J Med Chem, 2023).
≈ marks a conversion by molar mass, not a printed value. Calls of active or inactive are those of the source. The calls are words filed in the database; no cut-off is given here.

Legend:
[1] = Resistance index, ratio of EC50 for wild type Hepatitis B virus to EC50 for Hepatitis B virus harboring L180M/M204 V/S202G transfected in human HepG2 cells measured after 6 days by qPCR analysis; assay type: functional; settings: time 6 day
[2] = Resistance index, ratio of EC50 for wild type Hepatitis B virus to EC50 for Hepatitis B virus harboring L180M/M204 V/T184G/[…] transfected in human HepG2 cells measured after 6 days by qPCR analysis; assay type: functional; settings: time 6 day
[3] = Resistance index, ratio of EC50 for wild type Hepatitis B virus to EC50 for Hepatitis B virus harboring L180M/M204 V/M250 V/[…] transfected in human HepG2 cells measured after 6 days by qPCR analysis; assay type: functional; settings: time 6 day
[4] = AUC (0 to infinity) in C57BL/6 mouse plasma at 5 mg/kg, po administered as single dose measured upto 24 hrs by LC-MS/MS analysis; assay type: ADME, organism-based; design: time < 24 hrs, dose 5 mg/kg, route po
[5] = Cmax in C57BL/6 mouse plasma at 5 mg/kg, po administered as single dose measured upto 24 hrs by LC-MS/MS analysis; assay type: ADME, organism-based; design: dose 5 mg/kg, time < 24 hrs, route po
[6] = AUC (0 to infinity) in C57BL/6 mouse plasma at 2 mg/kg, iv administered as single dose measured upto 24 hrs by LC-MS/MS analysis; assay type: ADME, organism-based; design: dose 2 mg/kg, time < 24 hrs, route iv
[7] = Plasma protein binding in mouse assessed as free fraction incubated for 5 hrs by LC-MS/MS analysis; assay type: ADME, cell-free
[8] = Cytotoxicity against human HepDE19 cells assessed as reduction in cell viability measured after 5 days by CCK-8 method; assay type: functional; settings: HepDE19, 120 h, time 5 day
[9] = Half life in C57BL/6 mouse plasma at 2 mg/kg, iv administered as single dose measured upto 24 hrs by LC-MS/MS analysis; assay type: ADME, organism-based
[10] = Clearance in C57BL/6 mouse plasma at 2 mg/kg, iv administered as single dose measured upto 24 hrs by LC-MS/MS analysis; assay type: ADME, organism-based
[11] = Lyophilization solubility of the compound in phosphate buffer at pH 6.5 incubated for 1 hr under stirring condition and 2 hrs under shaking condition by HPLC-UV analysis; assay type: physicochemical
Hepatitis B virus [12] = assay: Antiviral activity against HBV infected in human HepG2.2.15 cells assessed as reduction in HBV DNA replication measured after 5 days by qPCR analysis; assay type: functional, organism-based; settings: HepG2.2.15, 120 h
[13] = Selectivity index, ratio of CC50 for human HepDE19 cells assessed as reduction in cell viability to EC50 for HBV infected in human HepG2.2.15 cells assessed as reduction in HBV DNA replication; assay type: toxicity, cell-based; settings: HBV-infected HepG2.2.15 cells (EC50)
[14] = Oral bioavailability in C57BL/6 mouse plasma at 5 mg/kg administered as single dose measured upto 24 hrs by LC-MS/MS analysis; assay type: ADME, organism-based
[15] = Metabolic stability in human liver microsomes assessed as clearance at 1 uM preincubated for 10 mins and measured upto 30 mins in presence of NADPH generating system by LC-MS/MS analysis; assay type: ADME, Microsome; settings: time < 40 min
[16] = Ratio of AUC (0 to infinity) in liver to plasma of C57BL/6 mouse liver at 5 mg/kg, po administered as single dose measured upto 24 hrs by LC-MS/MS analysis; assay type: ADME, organism-based; settings: read-out: Ratio AUC
[17] = AUC (0 to infinity) in C57BL/6 mouse liver at 5 mg/kg, po administered as single dose measured upto 24 hrs by LC-MS/MS analysis; assay type: ADME, organism-based; design: time < 24 hrs, dose 5 mg/kg, route po
[18] = Volume of distribution at steady state in C57BL/6 mouse plasma at 2 mg/kg, iv administered as single dose measured upto 24 hrs by LC-MS/MS analysis; assay type: ADME, organism-based; settings: read-out: Vdss
[19] = Metabolic stability in mouse liver microsomes assessed as clearance at 1 uM preincubated for 10 mins and measured upto 30 mins in presence of NADPH generating system by LC-MS/MS analysis; assay type: ADME, Microsome; settings: time < 40 min
[20] = Resistance index, ratio of EC50 for wild type Hepatitis B virus to EC50 for Hepatitis B virus harboring M204 V transfected in human HepG2 cells measured after 6 days by qPCR analysis; assay type: functional; settings: time 6 day
[21] = Resistance index, ratio of EC50 for wild type Hepatitis B virus to EC50 for Hepatitis B virus harboring A181V/N236T transfected in human HepG2 cells measured after 6 days by qPCR analysis; assay type: functional; settings: time 6 day
[22] = Resistance index, ratio of EC50 for wild type Hepatitis B virus to EC50 for Hepatitis B virus harboring L180M/M204V transfected in human HepG2 cells measured after 6 days by qPCR analysis; assay type: functional; settings: time 6 day
[23] = Resistance index, ratio of EC50 for wild type Hepatitis B virus to EC50 for Hepatitis B virus harboring A181T/N236T transfected in human HepG2 cells measured after 6 days by qPCR analysis; assay type: functional; settings: time 6 day
[24] = Resistance index, ratio of EC50 for wild type Hepatitis B virus to EC50 for Hepatitis B virus harboring […] transfected in human HepG2 cells measured after 6 days by qPCR analysis; assay type: functional; settings: time 6 day
[25] = Resistance index, ratio of EC50 for wild type Hepatitis B virus to EC50 for Hepatitis B virus harboring L180M/M204 V/A194T transfected in human HepG2 cells measured after 6 days by qPCR analysis; assay type: functional; settings: time 6 day
[26] = Resistance index, ratio of EC50 for wild type Hepatitis B virus to EC50 for Hepatitis B virus harboring N236T transfected in human HepG2 cells measured after 6 days by qPCR analysis; assay type: functional; settings: time 6 day
[27] = Resistance index, ratio of EC50 for wild type Hepatitis B virus to EC50 for Hepatitis B virus harboring A181V transfected in human HepG2 cells measured after 6 days by qPCR analysis; assay type: functional; settings: time 6 day
[28] = Resistance index, ratio of EC50 for wild type Hepatitis B virus to EC50 for Hepatitis B virus harboring A181T transfected in human HepG2 cells measured after 6 days by qPCR analysis; assay type: functional; settings: time 6 day
Hepatitis B virus [29] = assay: Inhibition of HBV replication transfected in human HepG2.2.15 cells assessed as assessed as induction of capsid degradation in cell lysate at upto 10 uM incubated for 5 days by SDS-PAGE analysis; assay type: functional, organism-based; settings: time 5.0 day
Hepatitis B virus [30] = assay: Inhibition of HBV replication transfected in human HepG2.2.15 cells assessed as assessed as induction of total core protein degradation in cell lysate at upto 10 uM incubated for 5 days by SDS-PAGE analysis; assay type: functional, organism-based; settings: time 5.0 day
Hepatitis B virus [31] = assay: Inhibition of HBV replication transfected in human HepG2.2.15 cells assessed as inhibition of encapsidated DNA formation in cell lysate incubated for 5 days by SDS-PAGE analysis; assay type: functional, organism-based; settings: dose <= 10.0 µM, time 5.0 day

With `C=C1[C@H](CO)[C@@H](O)C[C@@H]1n1cnc2c(=O)[nH]c(N)nc21` [ENTECAVIR ANHYDROUS] the “Ratio EC50” value [1] was 62.8, the “Ratio EC50” value [2] was 607.1 and the “Ratio EC50” value [3] was 712.4.

`C[C@H]1Cn2ncc(N3CCCC3=O)c2CN1C(=O)Nc1cc(F)c(F)c(F)c1` showed an AUC(0-inf) [4] of 2640 ng·h/mL, a Cmax [5] of 1130 ng/mL and an AUC(0-inf) [6] of 2440 ng·h/mL. It also gave a fraction unbound at 5 h [7] of 0.18, a CC50 [8] greater than 100000 nM and a half-life [9] of 1 h. For the same compound, the clearance [10] was 13.7 mL/min/kg, the solubility at 3 h [11] was 430 µg/mL (≈ 1090 µM) and the EC50 (Hepatitis B virus [12]) was 42 nM. The selectivity ratio [13] was greater than 2380, the bioavailability [14] was 43% and the CLhep predicted at 1 µM [15] was 6.5 mL/min/kg. It also gave a Kp at 24 h [16] of 3.2, an AUC(0-inf) [17] of 8550 ng·h/mL and a Vd [18] of 1 L/kg. For the same compound, the CLhep predicted at 1 µM [19] was 29 mL/min/kg.

With `Nc1ccn([C@@H]2CS[C@H](CO)O2)c(=O)n1` [LAMIVUDINE] the “Ratio EC50” value [20] was 19, the “Ratio EC50” value [21] was 5.8 and the “Ratio EC50” value [22] was greater than 225. The “Ratio EC50” value [23] was 29.

In the case of `Cc1cn([C@@H]2C[C@@H](O)[C@H](CO)O2)c(=O)[nH]c1=O` [TELBIVUDINE], the “Ratio EC50” value [24] is reported as greater than 165.

In the case of `C[C@H]1Cn2ncc(N3CCCC3=O)c2CN1C(=O)Nc1ccc(F)c(Cl)c1`, the “Ratio EC50” value [25] is reported as 2.2, the “Ratio EC50” value [26] is reported as 1.4 and the CC50 [8] is reported as 94000 nM. The “Ratio EC50” value [27] was 2.1, the “Ratio EC50” value [20] was 1.8 and the “Ratio EC50” value [28] was 1.6. The “Ratio EC50” value [21] was 2.2, the “Ratio EC50” value [22] was 2.6 and the solubility at 3 h [11] was 330 µg/mL (≈ 842 µM). The “Ratio EC50” value [23] was 2.2, the EC50 (Hepatitis B virus [12]) was 36 nM and the selectivity ratio [13] was 2600. The “Ratio EC50” value [1] was 1.9, the “Ratio EC50” value [24] was 1.9 and the inhibition (Hepatitis B virus [29]) was “inactive”. The inhibition (Hepatitis B virus [30]) was “inactive”, the inhibition (Hepatitis B virus [31]) was “Dose-Dependent Effect” and the CLhep predicted at 1 µM [15] was 11 mL/min/kg. The “Ratio EC50” value [2] was 2.9, the “Ratio EC50” value [3] was 2.4 and the CLhep predicted at 1 µM [19] was 50 mL/min/kg.
